Entries after “also recorded” stand apart in the source; their conditions may differ. Read-outs that look alike come from different tables or passages of the source.

The target of one data set is T1, HDAC1 (Homo sapiens, UniProt Q13547).
T1 construct: purchased Abcam
As to the kind of experiment: In vitro HDAC1 inhibition, fluorescent substrate Boc-Lys(acetyl)-AMC. The format is biochemical. On the procedure: In the 96-well plates, different concentrations of the tested compound (50 μL) were added to 10 μl of HDAC1 enzyme solution. After incubation at 37°C for 5 min, 40 μl of the fluorescent substrate Boc-Lys (acetyl)-AMC was then added to the mixture. The plates were incubated at 37°C for 0.5 h, and the developer (100 μl) containing trypsin and TSA was added to the mixture. Finally, the fluorescence intensity at wavelengths of 390 nm and 460 nm was measured 20 min later by a microplate reader (Perkin Elemer).
(§1) All experiments were performed in triplicate. Competition binding data were analyzed using GraphPad Prism 6.0 software (GraphPad Software Inc, San Diego, CA) and the inhibition constants (IC50) were calculated by nonlinear curve fitting.

The target of the next data set is T2, SPOP (Homo sapiens, UniProt O43791).
T2 construct: purchased Abcam
T2 sequence (O43791 23-337): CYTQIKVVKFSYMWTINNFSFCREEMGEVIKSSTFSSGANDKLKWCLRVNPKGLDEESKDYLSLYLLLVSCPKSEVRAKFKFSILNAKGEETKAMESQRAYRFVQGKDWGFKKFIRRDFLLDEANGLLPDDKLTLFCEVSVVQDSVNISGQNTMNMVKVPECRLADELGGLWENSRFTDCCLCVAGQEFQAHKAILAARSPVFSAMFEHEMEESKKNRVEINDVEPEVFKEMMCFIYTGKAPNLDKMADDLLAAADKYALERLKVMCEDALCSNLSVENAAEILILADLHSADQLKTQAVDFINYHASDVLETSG
As to the kind of experiment: SPOP fluorescence polarization (FP) competition assay with FITC-puc_SBC1. Format: binding. On the procedure:
The enzymatic activity of SPOP was determined by a previously described fluorescence polarization (FP) assay ([Guo et al., 2016]). FITC-labeled peptide substrate puc_SBC1 (FITC-puc_SBC1, FITC-[…]) was purchased (GL Biochem Ltd, Shanghai). Serial dilutions of competitors for SPOP23-337 were prepared from the 20 mM DMSO stocks. The diluted compound was added to the reaction mixture in 100 μl of HEPES (25 mM, pH 7.5) containing 10 μM SPOP and 50 nM FITC-puc_SBC1. After incubation for 1 h at 4°C, FP was measured on a microplate reader (Perkin Elemer) using the wavelengths of 480 nm for excitation and 535 nm for emission, respectively.
as §1
Background: Fluorescence polarisation rises when a labelled molecule tumbles more slowly, as on binding a larger partner.

The subject of another data set is 769-P cell. Nature of the data set: MTT cell growth inhibition, 769-P. The note with it: 72 h, read-out: 769-P cell proliferation IC50. The format is cell-based. On the procedure: (§2) According to the previously reported method ([Namwan et al., 2022]; [Zhao et al., 2023]), at a concentration of 5 × 10^4/ml, cell lines were planted in 96-well plates and cultivated for an entire night. The cells were incubated at 37 °C for 72 h while being exposed to various inhibitor concentrations. And then, MTT stock solution (5 mg/ml) was added to each well and incubated for an additional 4 h. Dimethyl sulfoxide (DMSO) was used to dissolve the insoluble crystals, and a microplate reader was used to detect absorbance at 570 nm. Survival ratio (%) was calculated using the following equation: survival ratio (%) = (A treatment /A control ) × 100%. Data were analyzed using the analysis software GraphPad Prism 6.0 software (GraphPad Software Inc., San Diego, CA), and the half-maximal inhibitory concentration (IC50) values were calculated by the dose-response curve visualized using nonlinear regression (curve fit).

In another data set the test system is OS-RC-2 cell. As to the kind of experiment: MTT cell growth inhibition, OS-RC-2. Format: cell-based. The note with it: read-out: OS-RC-2 cell proliferation IC50. On the procedure: as §2
Data set [1] deals with SPOP and HDAC levels in HCT-116 cells. As to the kind of experiment: Western blot of SPOP and HDAC levels in HCT-116 cells. Format: cell-based. The note with it: HCT-116 cells, 0, 0.5 and 2 μM, 72 h. On the procedure: (§3) The tumor cells (10^6 cells/well) were seeded onto 6-well plates and allowed to culture for 24 h. The cells were incubated with various concentrations (0, 0.5 and 2 μM) of HS-2 at 37°C for 72 h. Tumor cells were washed and lysed with RIPA. Protein samples were detected by western blot as described previously ([Zheng et al., 2021]).
Background: A western blot detects proteins with antibodies after separation by electrophoresis.

For data set [2], the system named is SPOP and HDAC levels in A498 cells. As to the kind of experiment: Western blot of SPOP and HDAC levels in A498 cells. The note with it: A498 cells, 0, 0.5 and 2 μM, 72 h. The format is cell-based. On the procedure:
as §3

In the next data set the test system is HCT-116 tumor cells. As to the kind of experiment: In vivo anticancer activity, HCT-116 xenograft. The conditions noted are these: six times; for tumor volume versus control group: HCT-116 xenograft, nude mice. On the procedure: According to the previously reported in vivo inhibition method, we injected HCT-116 tumor cells (200 μl, 1 × 10^7 cells) into the right subcutaneous space of 6-week-old BALB/c nude mice (Experimental Animal Center of Yangzhou University (Yangzhou, China) ([Zheng et al., 2021]). All experimental protocols were approved by the Animal Ethics Committee of China Pharmaceutical University. When the tumors grew to 90–120 mm^3, the mice were randomly divided into three groups (five mice per group) and intraperitoneally administered with vehicle (PBS buffer pH 7.4, volume capacity: 0.2 ml), compound HS-2 (volume capacity: 0.2 ml in PBS vehicle, 5 mg/kg), and compound HS-2 (volume capacity: 0.2 ml in PBS vehicle, 10 mg/kg) every 3 days for a total of six times. Tumor volume and weight were measured every 3 days. Tumor volume was calculated using the formula (c × c × d)/2 (c, the smallest diameter; d, the largest diameter).

The mark [3] stands for this setting: FP, 10 μM SPOP, 50 nM FITC-puc_SBC1, triplicate.
The mark [4] stands for this setting: 5 and 10 mg/kg intraperitoneally every 3 days.

T1 sequence (Q13547 whole entry): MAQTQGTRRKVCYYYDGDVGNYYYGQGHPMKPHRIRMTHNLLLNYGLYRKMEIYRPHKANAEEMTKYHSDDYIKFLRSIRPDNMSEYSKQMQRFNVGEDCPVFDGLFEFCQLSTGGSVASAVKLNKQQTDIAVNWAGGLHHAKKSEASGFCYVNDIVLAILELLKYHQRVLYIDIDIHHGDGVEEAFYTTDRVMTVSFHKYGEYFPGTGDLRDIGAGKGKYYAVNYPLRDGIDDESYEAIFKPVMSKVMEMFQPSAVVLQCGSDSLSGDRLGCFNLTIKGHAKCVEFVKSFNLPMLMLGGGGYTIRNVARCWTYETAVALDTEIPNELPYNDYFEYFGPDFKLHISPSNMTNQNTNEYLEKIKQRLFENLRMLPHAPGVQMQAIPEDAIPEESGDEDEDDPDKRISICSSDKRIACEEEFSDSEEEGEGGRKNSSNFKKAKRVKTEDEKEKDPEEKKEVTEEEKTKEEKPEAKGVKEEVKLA

Consider `Cc1cccn2c(=O)c3cc(ONCCCCCC(=O)NO)c(=N)n(CCc4cccs4)c3nc12` [HS-1], for which the figures for the IC50 against HDAC1 (triplicate) and on SPOP (setting [3]) were 0.0137 ± 0.0011 µM and 18.3 ± 2.5 µM, respectively.
As to `Cc1cccn2c(=O)c3cc(ONCCCCCC(=O)NO)c(=N)n(CCc4ccc(C(F)(F)F)cc4)c3nc12` [HS-2], the IC50 against HDAC1 (triplicate) is 0.0076 ± 0.0004 µM; on SPOP (setting [3]), 9.1 ± 0.7 µM; in the data set on 769-P cell it was 5.2 ± 1.1 µM; in the data set on 769-P cell (Homo sapiens, 769-P) it was < 10 µM; with OS-RC-2 cell (72 h), 9.3 ± 1.7 µM; with OS-RC-2 cell (Homo sapiens, OS-RC-2, 72 h), < 10 µM. Also, the “HDAC1 inhibitory effect relative to Vorinostat (IC50 ratio)” value on HDAC1 (versus positive control Vorinostat) was “about 1.1 times”. Further, the “SPOP inhibitory effect relative to SPOP-IN-6b (IC50 ratio)” value on SPOP (versus positive control SPOP-IN-6b) is reported as ~3.8 times. In addition, the “HDAC level (western blot)” value in data set [1] and in data set [2] was “reduced” in each case. Besides, the “SPOP level (western blot)” value in data set [1] and in data set [2] was “reduced” each time. For the same compound, the “tumor volume versus control group” value with HCT-116 tumor cells (5 mg/kg intraperitoneally every 3 days) and with HCT-116 tumor cells (10 mg/kg intraperitoneally every 3 days) was “significantly less tumor volume than the control group” throughout. Moreover, in the data set on HCT-116 tumor cells (setting [4]), the “body weight of mice” value is “no significant differences”. For the same compound, in the data set with HCT-116 tumor cells (setting [4]), the toxicity in vivo entry was “no significant toxicity”.
Take `Cc1cccn2c(=O)c3cc(ONCCCCCC(=O)NO)c(=N)n(CCc4ccc(Cl)c(F)c4)c3nc12` [HS-3]: the IC50 was 0.0115 ± 0.0013 µM on HDAC1 (triplicate) and 14.9 ± 1.2 µM on SPOP (setting [3]).
Take `CCN(CC)CCn1c(=N)c(ONCCCCCC(=O)NO)cc2c(=O)n3cccc(C)c3nc21` [HS-4]: the IC50 against HDAC1 (triplicate) is 0.0184 ± 0.0019 µM; at SPOP (setting [3]), 23.2 ± 2.7 µM.
Turning to `Cc1cccn2c(=O)c3cc(C(=O)NCCCN4CCOCC4)c(=N)n(CCc4ccccc4)c3nc12` [SPOP-IN-6b, reference compound], the “HDAC1 (IC50, nM)” value on HDAC1 (triplicate) was “without an inhibitory effect on HDAC1; also recorded: no binding”. Further, the IC50 on SPOP (setting [3]) was determined as 34.6 ± 3.1 µM.
With `O=C(CCCCCCC(=O)Nc1ccccc1)NO` [Vorinostat, reference compound], the “SPOP (IC50, μM)” value at SPOP (setting [3]) was “without affecting SPOP activity; also recorded: no binding”.

The record behind these values is paper PMC10363607, “Identification of novel and potent dual-targeting HDAC1/SPOP inhibitors using structure-based virtual screening, molecular dynamics simulation and evaluation of in vitro and in vivo antitumor activity” (Frontiers in Pharmacology, 2023).
